In paper PMC3597463 (Analytical chemistry, 2013):
Where two headings read alike, the source gives them in different places.

Legend:
[1] = molecular target: Torpedo marmorata nicotinic acetylcholine receptor (Torpedo marmorata) (UniProt P02711); experiment: […]
[2] = system: Torpedo marmorata nicotinic acetylcholine receptor (nAChR); experiment: nAChR/microsphere-based inhibition assay; assay type: binding; conditions: for Interference with the Luminex nAChR-based assay: restated in discussion, concentration not given there; for IC50 expressed as level in shellfish meat: assuming 100% recoveries
nAChR [3] = conditions: cited from earlier work
[4] = assay type: physicochemical; conditions: for % Recovery (toxin detected after storage versus freshly analyzed samples): 7 ng/ml, 4 weeks
nAChR [5] = conditions: chemiluminescence assay; cited from earlier work
nAChR [6] = conditions: fluorescence polarization assay; cited from earlier work
mice [7] = conditions: cited from earlier work; for LD50: fed to fasted mice; for oral LD50: mice
mice [8] = conditions: fed to fasted mice, from reported LD50
[9] = system: Lymnaea stagnalis acetylcholine binding protein (Ls-AChBP); experiment: Ls-AChBP/microsphere-based inhibition assay; conditions: buffer
[10] = molecular target: Acetylcholine binding protein from Lymnaea stagnalis (Lymnaea stagnalis, UniProt P58154 20-229); experiment: […]
Sequence of Acetylcholine binding protein from Lymnaea stagnalis (P58154 20-229): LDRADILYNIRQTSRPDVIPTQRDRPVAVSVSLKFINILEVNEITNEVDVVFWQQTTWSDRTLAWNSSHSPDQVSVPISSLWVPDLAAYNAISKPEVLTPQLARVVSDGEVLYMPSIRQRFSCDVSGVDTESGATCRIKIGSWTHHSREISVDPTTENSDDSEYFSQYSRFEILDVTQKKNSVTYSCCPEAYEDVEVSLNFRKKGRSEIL

Sequence of Torpedo marmorata nicotinic acetylcholine receptor (Torpedo marmorata) (P02711 whole entry, looked up): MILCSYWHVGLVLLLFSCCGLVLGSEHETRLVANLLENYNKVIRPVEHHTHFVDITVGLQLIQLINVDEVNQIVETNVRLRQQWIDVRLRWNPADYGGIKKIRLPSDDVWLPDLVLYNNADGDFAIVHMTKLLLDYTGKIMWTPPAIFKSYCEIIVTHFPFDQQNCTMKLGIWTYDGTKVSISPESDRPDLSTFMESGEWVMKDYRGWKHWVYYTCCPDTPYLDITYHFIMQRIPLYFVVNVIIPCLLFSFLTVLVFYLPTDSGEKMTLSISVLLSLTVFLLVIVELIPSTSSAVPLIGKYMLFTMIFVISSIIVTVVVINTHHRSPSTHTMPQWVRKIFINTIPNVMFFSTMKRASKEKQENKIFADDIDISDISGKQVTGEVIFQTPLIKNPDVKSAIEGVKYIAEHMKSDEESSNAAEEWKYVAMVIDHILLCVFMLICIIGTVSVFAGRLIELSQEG

Molecule: Biotin-α-bungarotoxin (peptide)
- maximum binding signal to background ratio [1]: 500

Molecule: azaspirazid-1
- Interference with the nAChR-based assay (maximum and minimum binding signals) ([2]; 1 μM): no effects on maximum and minimum binding signals
- Interference with the Luminex nAChR-based assay [2]: do not interfere

Molecule: brevetoxin-2
- Interference with nAChR based assays (nAChR [3]): not shown any interferences

Molecule: C=C1CCCC2=NCC(C)C(C)CC23CCC(C2C=C(C)C(=O)O2)=C(C)C3/C=C(/C)C(O)CC2CCC3(CCC4(OC(CCC4(C)O)C1)O3)O2 (centres unmarked) [13-desmethyl spirolide C]
- % Recovery (toxin detected after storage versus freshly analyzed samples) ([4]; buffer (PBS-BT/20% EtOH), 4–8 °C): 109 ± 6%
- % Recovery (toxin detected after storage versus freshly analyzed samples) ([4]; buffer (PBS-BT/20% EtOH), −20 °C): 98.1 ± 6.3%
- % Recovery (toxin detected after storage versus freshly analyzed samples) ([4]; mussel extract, 4–8 °C): 135 ± 23%
- % Recovery (toxin detected after storage versus freshly analyzed samples) ([4]; mussel extract, −20 °C): 121 ± 16%
- % Recovery (toxin detected after storage versus freshly analyzed samples) ([4]; scallop extract, 4–8 °C): 92.0 ± 9.2%
- % Recovery (toxin detected after storage versus freshly analyzed samples) ([4]; scallop extract, −20 °C): 85.5 ± 5.5%
- % of toxin recovered after storage in mussel homogenate ([4]; spiked mussel homogenate, two weeks, −20 °C): 105.7 ± 5.3%
- IC50 (nAChR [5]): 35 nM
- IC50 (nAChR [6]): 100 nM
- LD50 (mice [7]): 0.5 mg/kg
- oral LD50 (mice [7]; administered with food): 500 Wg/kg
- oral LD50 (mice [7]; by gavage): 160 Wg/kg
- IC50 [2]: 10 nM
- IC20 ([2]; buffer): 0.2 ± 0.04 ng/mL
- IC50 ([2]; buffer): 7.4 ± 0.7 ng/mL
- IC50 ([2]; buffer (PBS-BT/20% EtOH), n = 8): 10.8 ± 0.9 nM
- IC20 ([2]; clam extract): 0.3 ± 0.01 ng/mL
- IC50 ([2]; clam extract): 10.3 ± 1.4 ng/mL
- IC80 ([2]; clam extract): 160 ± 6 ng/mL
- IC50 expressed as level in shellfish meat ([2]; clam extract): 411.6 ± 54.8 Wg/kg
- IC50 ([2]; clam extract, n = 2): 14.9 ± 1.9 nM
- IC20 ([2]; mussel extract): 0.4 ± 0.1 ng/mL
- IC50 ([2]; mussel extract): 11.3 ± 1.1 ng/mL
- IC80 ([2]; mussel extract): 160 ± 8 ng/mL
- IC50 expressed as level in shellfish meat ([2]; mussel extract): 451.3 ± 42.4 Wg/kg
- IC50 ([2]; mussel extract, n = 6): 16.3 ± 1.5 nM
- Detection efficiency of 13-desmethyl spirolide C relative to gymnodimine ([2]; nAChR assay, buffer): 24 times
- IC20 ([2]; read-out: IC20 (nM), lower end of dynamic range, buffer): 0.4 ± 0.07 nM
- IC20 ([2]; read-out: IC20 (nM), lower end of dynamic range, clam extract): 0.5 ± 0.01 nM
- IC20 ([2]; read-out: IC20 (nM), lower end of dynamic range, mussel extract): 0.6 ± 0.2 nM
- IC20 ([2]; read-out: IC20 (nM), lower end of dynamic range, scallop extract): 0.5 ± 0.2 nM
- IC80 ([2]; read-out: IC80 (nM), upper end of dynamic range, clam extract): 231 ± 23 nM
- IC80 ([2]; read-out: IC80 (nM), upper end of dynamic range, mussel extract): 232 ± 11 nM
- IC80 ([2]; read-out: IC80 (nM), upper end of dynamic range, scallop extract): 201 ± 9 nM
- IC20 ([2]; scallop extract): 0.4 ± 0.2 ng/mL
- IC50 ([2]; scallop extract): 8.6 ± 1.5 ng/mL
- IC80 ([2]; scallop extract): 139 ± 6.5 ng/mL
- IC50 expressed as level in shellfish meat ([2]; scallop extract): 344.2 ± 60.3 Wg/kg
- IC50 ([2]; scallop extract, n = 5): 12.4 ± 2.2 nM

Molecule: 20-methyl spirolide G
- oral LD50 (mice [7]; administered with food): 500 Wg/kg
- oral LD50 (mice [7]; by gavage): 160 Wg/kg
- Cross-reactivity (IC50 of 13-desmethyl spirolide C / IC50 of cyclic imine x 100) ([2]; nAChR assay, buffer): 95%

Molecule: C/C(=C/C=C/[C@@H](C)C(=O)O)[C@H]1CN[C@H](C(=O)O)[C@H]1CC(=O)O [domoic acid]
- Interference with the nAChR-based assay (maximum and minimum binding signals) ([2]; 10 μM): no effects on maximum and minimum binding signals
- Interference with the Luminex nAChR-based assay [2]: do not interfere

Molecule: C=CCC(=C)/C=C/[C@@](C)(O)[C@H]1O[C@@H]2C[C@@H]3O[C@@H]4C[C@@H]5O[C@@H]6C[C@@H]7O[C@@H]8C[C@@H]9O[C@@H]%10C[C@@H]%11O[C@](C)(CCOS(=O)(=O)O)[C@@H](OS(=O)(=O)O)C[C@H]%11O[C@H]%10C[C@H]9O[C@H]8CC[C@@]7(C)O[C@@]6(C)CC[C@H](C)[C@H]5O[C@H]4C[C@@]3(C)O[C@H]2CC1=C [yessotoxin]
- Interference with nAChR based assays (nAChR [3]; previous studies): not shown any interferences
- Interference with the nAChR-based assay (maximum and minimum binding signals) ([2]; 5 μM): no effects on maximum and minimum binding signals
- Interference with the Luminex nAChR-based assay [2]: do not interfere

Molecule: C=C1[C@@H](O)[C@@H]2O[C@]3(CC[C@H](/C=C/[C@@H](C)[C@@H]4CC(C)=C[C@@]5(O[C@H](C[C@@](C)(O)C(=O)O)CC[C@H]5O)O4)O3)CC[C@H]2O[C@@H]1[C@@H](O)C[C@H](C)[C@H]1O[C@@]2(CCCCO2)CC[C@H]1C [okadaic acid]
- Interference with nAChR based assays (nAChR [3]; previous studies): not shown any interferences
- Interference with the nAChR-based assay (maximum and minimum binding signals) ([2]; 10 μM): no effects on maximum and minimum binding signals
- Interference with the Luminex nAChR-based assay [2]: do not interfere

Molecule: CC1=C[C@@H](C2=C(C)[C@@H]3/C=C(\C)[C@@H](O)CC[C@@H]4C[C@@H](C)[C@@H](O4)/C(C)=C/CCC4=NCCC[C@@]43CC2)OC1=O [gymnodimine, Gymnodimine]
- Times less toxic than 13-desmethyl spirolide C (mice [8]): > 15 times
- LD50 (mice [7]): > 7.5 mg/kg
- Assay efficiency for gymnodimine relative to 13-desmethyl spirolide C [9]: 14 fold

Molecule: azaspiracid-2
- Interference with nAChR based assays (nAChR [3]; previous studies): not shown any interferences

B1: Biotin-α-bungarotoxin (peptide)
chain: IVCHTTATSPISAVTCPPGENLCYRKMWCDAFCSSRGKVVELGCAATCPSKKPYEEVTCCSTDKCNPHPKQRPG
- maximum binding signal to background ratio [10]: ~2000
